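Cultured in 96-well plates, cells were exposed to test compound for 48 hours across five concentrations. Abbreviation: GI50, concentration required for 50% inhibition of growth.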 Calls of active or inactive are those of the source. No stated cut-off is given here; in the data, active = GI50 up to about 1.1 µM and inactive = higher. Square brackets hold non-standard residues; d marks the D form. Peptide text beside a SMILES is read from it. * marks the point of attachment. Bn2Val = CC(C)[C@@H](C(=O)*)N(Cc1ccccc1)Cc1ccccc1; NH(3,4-diMeO-benzyl) = COc1ccc(CN*)cc1OC; NMeV = CN[C@H](C(=O)O)C(C)C; dNMeA = CN[C@H](C)C(=O)O
Columns and labels:
Assay in all cases: growth of human tumour cells (NCI), 48 h
TK-10 = tested on: TK-10
CAKI-1 = tested on: CAKI-1
RPMI-8226 = tested on: RPMI-8226
NCI/ADR-RES = tested on: NCI/ADR-RES
SW-620 = tested on: SW-620
M14 = tested on: M14
UACC-62 = tested on: UACC-62
NCI-H226 = tested on: NCI-H226
SF-539 = tested on: SF-539
HCC 2998 = tested on: HCC 2998
MDA-N = tested on: MDA-N
HT-29 = tested on: HT-29
OVCAR-8 = tested on: OVCAR-8
OVCAR-4 = tested on: OVCAR-4
SNB-75 = tested on: SNB-75
MOLT-4 = tested on: MOLT-4
UO-31 = tested on: UO-31
A549 = tested on: A549
ACHN = tested on: ACHN
NCI-H460 = tested on: NCI-H460

SMILES | GI50 (TK-10) | GI50 (CAKI-1) | GI50 (RPMI-8226) | GI50 (NCI/ADR-RES) | GI50 (SW-620) | GI50 (M14) | GI50 (UACC-62) | GI50 (NCI-H226) | GI50 (SF-539) | GI50 (HCC 2998) | GI50 (MDA-N) | GI50 (HT-29) | GI50 (OVCAR-8) | GI50 (OVCAR-4) | GI50 (SNB-75) | GI50 (MOLT-4) | GI50 (UO-31) | GI50 (A549) | GI50 (ACHN) | GI50 (NCI-H460)
O=C(CN(c1ccc(S(=O)(=O)O)cc1)c1ccc(S(=O)(=O)O)cc1)Nn1cnc2ccc(S(=O)(=O)N(c3ccc(S(=O)(=O)O)cc3)c3ccc(S(=O)(=O)O)cc3)cc2c1=O | > 100 µM (inactive) | > 100 µM (inactive) | > 100 µM (inactive) | > 100 µM (inactive) | > 100 µM (inactive) | > 100 µM (inactive) | > 100 µM (inactive) | > 100 µM (inactive) | > 100 µM (inactive) | > 100 µM (inactive) | > 100 µM (inactive) | > 100 µM (inactive) | > 100 µM (inactive) | > 100 µM (inactive) | > 100 µM (inactive) | > 100 µM (inactive) | > 100 µM (inactive) | > 100 µM (inactive) | > 100 µM (inactive) | > 100 µM (inactive)
COc1cc(Nc2nc3ccccc3nc2C(C)C)cc(OC)c1OC | > 100 µM (inactive) | > 100 µM (inactive) | 83.2 µM (inactive) | 68.4 µM (inactive) | > 100 µM (inactive) | > 100 µM (inactive) | > 100 µM (inactive) | > 100 µM (inactive) | > 100 µM (inactive) | > 100 µM (inactive) | > 100 µM (inactive) | 36.4 µM (inactive) | 73.3 µM (inactive) | > 100 µM (inactive) | > 100 µM (inactive) | > 100 µM (inactive) | > 100 µM (inactive) | > 100 µM (inactive) | > 100 µM (inactive) | > 100 µM (inactive)
CN1Cc2c(ccc3c2OCO3)[C@@H]2[C@H](O)Cc3cc4c(cc3[C@@H]21)OCO4 | 5.46 µM (inactive) | 4.89 µM (inactive) | 4.39 µM (inactive) | 2.35 µM (inactive) | 3.62 µM (inactive) | 2.2 µM (inactive) | 3.05 µM (inactive) | 3.01 µM (inactive) | 2.07 µM (inactive) | 2.11 µM (inactive) | 0.435 µM (active) | 2.14 µM (inactive) | 3.62 µM (inactive) | > 86.7 µM (inactive) | 2.62 µM (inactive) | 3.08 µM (inactive) | 6.28 µM (inactive) | 4.15 µM (inactive) | 11 µM (inactive) | 3.01 µM (inactive)
C=C(C)[C@@]1(O[Si](C)(C)C)CCCC[C@@H]1CC(Sc1ccccc1)Sc1ccccc1 | 15.4 µM (inactive) | 12.9 µM (inactive) | 16.9 µM (inactive) | 13.8 µM (inactive) | 14.1 µM (inactive) | 14.9 µM (inactive) | 13.2 µM (inactive) | 16.1 µM (inactive) | 10.2 µM (inactive) | 15.8 µM (inactive) | 15.4 µM (inactive) | 19.7 µM (inactive) | 16.1 µM (inactive) | 12.6 µM (inactive) | 12.1 µM (inactive) | 4.89 µM (inactive) | 13.8 µM (inactive) | 10.1 µM (inactive) | 15.4 µM (inactive) | 13.2 µM (inactive)
c1cc(-c2ccc(-c3nc4ccc(C5=NCCN5)cc4s3)s2)ccc1C1=NCCN1 | 0.804 µM (active) | 1.51 µM (inactive) | 0.295 µM (active) | 5.53 µM (inactive) | 1.02 µM (active) | 0.912 µM (active) | 1.12 µM (inactive) | 0.308 µM (active) | 0.296 µM (active) | 0.0292 µM (active) | 0.723 µM (active) | 0.596 µM (active) | 0.296 µM (active) | 0.182 µM (active) | 0.222 µM (active) | 0.0968 µM (active) | 1.02 µM (active) | 0.166 µM (active) | 0.562 µM (active) | 0.286 µM (active)
CCCCC1C=Cn2c(=O)oc3c(OC(C)C)c(C)c(O)c1c32 (stereo not given) | 5.52 µM (inactive) | 0.409 µM (active) | 1.42 µM (inactive) | 0.993 µM (active) | 0.904 µM (active) | 1.19 µM (inactive) | 0.929 µM (active) | 1.63 µM (inactive) | 2.49 µM (inactive) | 2.96 µM (inactive) | 2.37 µM (inactive) | 2.7 µM (inactive) | 1.73 µM (inactive) | 0.601 µM (active) | 0.466 µM (active) | 0.824 µM (active) | 0.71 µM (active) | 1.84 µM (inactive) | 0.413 µM (active) | 0.652 µM (active)
Oc1ccc(-c2c3ccccc3c(-c3ccc(OCCBr)cc3)c3ccccc23)cc1 | 34.5 µM (inactive) | 27.4 µM (inactive) | 31.1 µM (inactive) | 19.6 µM (inactive) | 53.3 µM (inactive) | 21 µM (inactive) | 19.7 µM (inactive) | 20 µM (inactive) | 13.9 µM (inactive) | 44.2 µM (inactive) | 26.4 µM (inactive) | 19.6 µM (inactive) | 22 µM (inactive) | 24.2 µM (inactive) | 25.1 µM (inactive) | > 100 µM (inactive) | 67.6 µM (inactive) | 28.4 µM (inactive) | 29.1 µM (inactive) | 52.6 µM (inactive)
C[C@@H]1CC[C@@]2(C)[C@H](C)/C(=C\COC(=O)/C=C/c3ccc(O)c(O)c3)CC[C@@]12C [NAVICULYL CAFFEATE] | 3.5 µM (inactive) | 4.58 µM (inactive) | 2.21 µM (inactive) | 7.8 µM (inactive) | 4.95 µM (inactive) | 8.18 µM (inactive) | 10.3 µM (inactive) | 6.05 µM (inactive) | 4.83 µM (inactive) | 7.67 µM (inactive) | 3.42 µM (inactive) | 3.94 µM (inactive) | 9.42 µM (inactive) | 4.65 µM (inactive) | 11.9 µM (inactive) | 2.26 µM (inactive) | 8.73 µM (inactive) | 7.62 µM (inactive) | 4.19 µM (inactive) | 3.57 µM (inactive)
Cc1ccc(-c2cn3c(nc4ccccc43)c(-c3ccccc3)n2)cc1 | 27.5 µM (inactive) | 37.7 µM (inactive) | > 100 µM (inactive) | 47.9 µM (inactive) | > 100 µM (inactive) | > 100 µM (inactive) | 22.4 µM (inactive) | 58.3 µM (inactive) | 58.2 µM (inactive) | > 100 µM (inactive) | > 100 µM (inactive) | > 100 µM (inactive) | 27.9 µM (inactive) | > 80.7 µM (inactive) | 8.45 µM (inactive) | > 100 µM (inactive) | > 49.1 µM (inactive) | > 100 µM (inactive) | 34 µM (inactive) | > 94.4 µM (inactive)
CN(C)C=O.O=C(Nc1nnn[nH]1)c1nc(O)cc(-c2ccccc2)n1 | > 100 µM (inactive) | > 100 µM (inactive) | > 100 µM (inactive) | > 100 µM (inactive) | > 100 µM (inactive) | > 100 µM (inactive) | > 100 µM (inactive) | > 100 µM (inactive) | > 100 µM (inactive) | > 100 µM (inactive) | > 100 µM (inactive) | > 100 µM (inactive) | > 100 µM (inactive) | > 100 µM (inactive) | > 100 µM (inactive) | > 100 µM (inactive) | > 100 µM (inactive) | > 100 µM (inactive) | > 100 µM (inactive) | > 100 µM (inactive)
COc1ccc(CNC(=O)[C@@H](C)N(C)C(=O)[C@@H]2CCCN2C(=O)[C@H](C(C)C)N(C)C(=O)[C@@H](NC(=O)[C@H](C(C)C)N(Cc2ccccc2)Cc2ccccc2)C(C)C)cc1OC (Bn2Val-V[NMeV]P[dNMeA]-{NH(3,4-diMeO-benzyl)}) | 11.7 µM (inactive) | 11.4 µM (inactive) | 2.66 µM (inactive) | 7.19 µM (inactive) | 10.1 µM (inactive) | 6.92 µM (inactive) | 7.01 µM (inactive) | 6.58 µM (inactive) | 7.89 µM (inactive) | 7.1 µM (inactive) | 9.06 µM (inactive) | 5.4 µM (inactive) | 14.1 µM (inactive) | 12.6 µM (inactive) | 6.43 µM (inactive) | 4.05 µM (inactive) | > 100 µM (inactive) | 5.85 µM (inactive) | 6.97 µM (inactive) | 9.73 µM (inactive)
CN1N=C(c2ccccc2)c2cc(Cl)ccc2N=C1N/N=C/c1ccc(N(C)C)cc1 | > 100 µM (inactive) | > 100 µM (inactive) | 70.5 µM (inactive) | > 100 µM (inactive) | > 100 µM (inactive) | > 100 µM (inactive) | > 100 µM (inactive) | 58.1 µM (inactive) | > 100 µM (inactive) | > 100 µM (inactive) | > 100 µM (inactive) | > 100 µM (inactive) | > 100 µM (inactive) | > 100 µM (inactive) | > 100 µM (inactive) | 62.7 µM (inactive) | > 100 µM (inactive) | > 100 µM (inactive) | > 100 µM (inactive) | > 100 µM (inactive)
Cc1nn2c(=O)c([N+](=O)[O-])c(/C=C/c3ccccc3)nc2s1 | 7.31 µM (inactive) | 7.78 µM (inactive) | 2.43 µM (inactive) | 3.56 µM (inactive) | 5.24 µM (inactive) | 6.81 µM (inactive) | 5.33 µM (inactive) | 3.07 µM (inactive) | 2.3 µM (inactive) | 8.13 µM (inactive) | 2.4 µM (inactive) | 3.04 µM (inactive) | 2.17 µM (inactive) | 10.5 µM (inactive) | 2.93 µM (inactive) | 2.98 µM (inactive) | 5.83 µM (inactive) | 5.46 µM (inactive) | 5.32 µM (inactive) | 5.61 µM (inactive)

Source: ChEMBL document CHEMBL1201862, “PubChem BioAssay data set” (2004)
